Experimental data: the NIST ThermoML archive (doi:10.1016/j.fluid.2015.12.021)
± gives the expanded uncertainty stated by the source.

Conditions: Crystal; visual observation

SMILES	Normal melting temperature [°C]
O=C(O)CCCCC(=O)O [1,6-hexanedioic acid]	153.20 ± 0.5
Cc1ccc(C(=O)O)cc1 [4-methylbenzoic acid]	179.60 ± 0.5
O=C(O)c1ccccc1 [benzoic acid]	122.4 ± 0.5
CCCCCCCCCCCCCCCCCC(=O)O [octadecanoic acid]	69.80 ± 0.5

Results, then the molecule that gave them:

Normal melting temperature [°C]	SMILES
80.26 ± 0.5	c1ccc2ccccc2c1 [naphthalene]
99.24 ± 0.5	c1ccc2c(c1)ccc1ccccc12 [phenanthrene]
